ChEMBL document CHEMBL3045753, “In silico ligand-based pharmacophore model generation for the identification of novel Pneumocystis carinii DHFR inhibitors” (Med Chem Res, 2013)

Molecular target: T1, Dihydrofolate reductase (Pneumocystis carinii, UniProt P16184)
T1 sequence (P16184 whole entry): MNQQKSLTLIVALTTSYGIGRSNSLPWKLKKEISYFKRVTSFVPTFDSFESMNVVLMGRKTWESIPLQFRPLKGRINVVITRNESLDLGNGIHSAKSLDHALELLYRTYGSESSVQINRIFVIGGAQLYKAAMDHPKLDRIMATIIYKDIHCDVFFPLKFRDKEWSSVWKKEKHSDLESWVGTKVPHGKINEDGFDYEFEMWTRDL
Test: Inhibition of Pneumocystis carinii DHFR

| Structure (SMILES) | IC50 |
| --- | --- |
| N=C(N)c1ccc(N2CCN(c3ccc(-c4nc5ccccc5[nH]4)cc3)CC2)cc1 | 170 nM |
| CCc1nc(N)nc(N)c1-c1ccc(Cl)c(N(C)Cc2ccccc2)c1 | 1070 nM |
| COc1cc(C)c2c(OC3CCCCC3C(F)(F)F)c(OC)cc(NC(C)CCCN)c2n1 (stereo not given) | 711 nM |
| COc1cc(Cc2cnc(N)nc2N)cc(C#CCCC(=O)O)c1OC | 1000 nM |
| CCc1nc2nc(N)nc(N)c2nc1CC | 620 nM |
